Reference: ChEMBL document CHEMBL1201862, “PubChem BioAssay data set” (2004)
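Growth conditions: 96-well plates. Treatment: test compound, 48 hours, 5 concentrations. Analysis: linear interpolation between bracketing concentrations; unreached endpoints set to highest concentration. GI50 is the concentration that inhibits growth by half.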 Activity calls are given as the source filed them. No stated cut-off is given here; in the data, active = GI50 up to about 1.1 µM and inactive = higher.

Tests used:
Assay in all cases: NCI-60 cell line screen, 48 h
SN12C = tested on: SN12C
MDA-MB-231 = tested on: MDA-MB-231
KM12 = tested on: KM12
M14 = tested on: M14
A498 = tested on: A498
SNB-75 = tested on: SNB-75
SF-268 = tested on: SF-268
SK-MEL-5 = tested on: SK-MEL-5
786-0 = tested on: 786-0
IGROV-1 = tested on: IGROV-1
EKVX = tested on: EKVX
SK-OV-3 = tested on: SK-OV-3
U-251 = tested on: U-251
UACC-62 = tested on: UACC-62
MDA-N = tested on: MDA-N
NCI-H460 = tested on: NCI-H460
SNB-19 = tested on: SNB-19
RXF 393 = tested on: RXF 393

Measured: GI50

CCCCNC(=S)Nc1nc(C(=O)NNC(=O)c2ccccc2)cs1
inactive: SN12C 17.3 µM | MDA-MB-231 12.5 µM | KM12 15.2 µM | M14 14.9 µM | A498 30.3 µM | SNB-75 32.6 µM | SF-268 25.9 µM | SK-MEL-5 10.8 µM | 786-0 16.7 µM | IGROV-1 13.8 µM | EKVX 12.8 µM | SK-OV-3 17.5 µM | U-251 11.8 µM | UACC-62 17.6 µM | MDA-N 17.5 µM

C=CC(C)(C)n1cc(C2=C3OC(=O)C(c4cn(C(C)(C)C=C)c5ccccc45)=C3OC2=O)c2ccccc21
inactive: SN12C > 100 µM | MDA-MB-231 > 100 µM | NCI-H460 > 100 µM | KM12 > 100 µM | M14 > 100 µM | A498 > 100 µM | SNB-75 > 100 µM | SF-268 > 100 µM | SK-MEL-5 > 100 µM | 786-0 > 100 µM | IGROV-1 > 100 µM | EKVX > 100 µM | U-251 > 100 µM | SNB-19 > 100 µM | RXF 393 > 100 µM | MDA-N > 100 µM

Cc1cccc(-n2c(C)nc3ccc(NC(=S)Nc4ccccc4)cc3c2=O)c1
inactive: SN12C > 100 µM | MDA-MB-231 70.1 µM | NCI-H460 11 µM | KM12 57.3 µM | A498 > 100 µM | SNB-75 > 100 µM | SF-268 66.5 µM | SK-MEL-5 18.2 µM | 786-0 > 100 µM | IGROV-1 > 100 µM | EKVX 55.7 µM | U-251 > 100 µM | SNB-19 > 100 µM | RXF 393 62.4 µM | UACC-62 50.1 µM | MDA-N 55.6 µM

CCOC(=O)c1nc2cc(C(F)(F)F)ccc2nc1Oc1ccc(C(=O)OC)cc1
inactive: SN12C > 100 µM | MDA-MB-231 > 100 µM | NCI-H460 > 100 µM | KM12 > 100 µM | M14 64.3 µM | A498 > 100 µM | SNB-75 > 100 µM | SF-268 > 100 µM | SK-MEL-5 > 100 µM | 786-0 > 100 µM | IGROV-1 > 100 µM | EKVX > 100 µM | U-251 > 100 µM | SNB-19 > 100 µM | RXF 393 85.5 µM | UACC-62 > 100 µM | MDA-N > 100 µM

C/C(=N\O)c1ccc(OCc2cc(C(F)(F)F)cc(C(F)(F)F)c2)cc1
inactive: SN12C 46.2 µM | MDA-MB-231 > 100 µM | NCI-H460 23.4 µM | KM12 19.3 µM | M14 41 µM | A498 > 100 µM | SNB-75 51.9 µM | SF-268 43.2 µM | SK-MEL-5 50.9 µM | 786-0 41.2 µM | IGROV-1 75 µM | EKVX 78.5 µM | SK-OV-3 > 100 µM | U-251 34.4 µM | SNB-19 64.1 µM | RXF 393 21.8 µM | MDA-N 37.2 µM

Cc1cn(C2CCC(/C=N\O)O2)c(=O)[nH]c1=O (centres undefined)
inactive: SN12C > 100 µM | MDA-MB-231 > 100 µM | NCI-H460 > 100 µM | KM12 > 100 µM | M14 > 100 µM | A498 > 100 µM | SNB-75 > 100 µM | SK-MEL-5 > 100 µM | 786-0 > 100 µM | IGROV-1 > 100 µM | EKVX > 100 µM | U-251 > 100 µM | SNB-19 > 100 µM | RXF 393 > 100 µM | UACC-62 > 100 µM | MDA-N > 100 µM

COc1ccc(CN(Cc2ccc(OC)cc2)C(=O)CC2(O)C=CCC2)cc1 (centres undefined)
inactive: SN12C > 100 µM | MDA-MB-231 > 100 µM | NCI-H460 67.5 µM | KM12 45.9 µM | M14 > 100 µM | A498 > 100 µM | SNB-75 81.8 µM | SK-MEL-5 32.9 µM | 786-0 > 100 µM | IGROV-1 > 100 µM | EKVX 46.1 µM | SK-OV-3 > 100 µM | U-251 90.8 µM | SNB-19 71.9 µM | UACC-62 57.7 µM | MDA-N 72.9 µM

COC(=O)c1ccccc1/C=C1/Cc2ccccc2C1=O
inactive: SN12C 17.4 µM | MDA-MB-231 44.7 µM | NCI-H460 > 100 µM | KM12 25.2 µM | A498 > 100 µM | SNB-75 > 100 µM | SF-268 > 100 µM | SK-MEL-5 18.6 µM | 786-0 > 10 µM | IGROV-1 27.3 µM | EKVX 63.2 µM | SK-OV-3 > 100 µM | U-251 29.7 µM | RXF 393 54.6 µM | UACC-62 36.1 µM | MDA-N 55.8 µM

CS(=O)(=O)c1ccc(NNc2cc(=O)[nH]c(=O)[nH]2)cc1
inactive: SN12C > 100 µM | MDA-MB-231 > 100 µM | NCI-H460 > 100 µM | KM12 > 100 µM | M14 > 100 µM | A498 > 100 µM | SNB-75 > 100 µM | SF-268 > 100 µM | SK-MEL-5 > 100 µM | 786-0 > 100 µM | IGROV-1 > 100 µM | SK-OV-3 > 100 µM | U-251 > 100 µM | SNB-19 > 100 µM | RXF 393 > 100 µM | UACC-62 > 100 µM | MDA-N > 100 µM

CC1=C(CO)C(=O)O[C@@H]([C@@H](CO)[C@H]2CCC3C4C[C@@H](O)[C@@]5(O)CC=CC(=O)[C@]5(C)C4CC[C@@]32C)C1 (some centres undefined)
inactive: SN12C 55.2 µM | MDA-MB-231 59.2 µM | KM12 43.3 µM | M14 53.7 µM | A498 63.4 µM | SNB-75 35.6 µM | SF-268 43.3 µM | SK-MEL-5 51.4 µM | 786-0 28.6 µM | IGROV-1 > 100 µM | EKVX > 100 µM | SK-OV-3 > 100 µM | SNB-19 > 100 µM | RXF 393 15.2 µM | UACC-62 47 µM | MDA-N 71.9 µM

CO[C@@H]1C[C@H]2[C@@H]3CC[C@H]([C@@H](C)CO)[C@@]3(C)CC[C@@H]2[C@@]2(C)CC[C@H]3C[C@]312
inactive: SN12C 33 µM | MDA-MB-231 28.3 µM | NCI-H460 20.9 µM | KM12 19 µM | M14 23.3 µM | A498 > 100 µM | SNB-75 74.3 µM | SF-268 67 µM | SK-MEL-5 16.7 µM | 786-0 42.1 µM | IGROV-1 50.9 µM | EKVX 27.2 µM | U-251 14.6 µM | SNB-19 53.6 µM | RXF 393 19.2 µM | MDA-N 34.7 µM

Cc1cc(=O)oc2c(CN3CCCCC3)c(O)ccc12
inactive: SN12C > 100 µM | MDA-MB-231 > 100 µM | NCI-H460 > 100 µM | M14 > 100 µM | A498 > 100 µM | SNB-75 > 100 µM | SF-268 > 100 µM | SK-MEL-5 > 100 µM | 786-0 > 100 µM | IGROV-1 > 100 µM | EKVX > 100 µM | U-251 > 100 µM | SNB-19 > 100 µM | RXF 393 > 100 µM | UACC-62 > 100 µM | MDA-N > 100 µM
